The results in this text go back to patent US8946225B2, “Derivatives of 2H pyridazin-3-ones, their preparation and their use as SCD-1 inhibitors” (Pierre Fabre Medicament, priority 2009, dated 2015).

One data set concerns the target T1, SCD-1 (Homo sapiens, UniProt O00767).
T1 construct: addition of 125 μg of microsomal fraction of HepG2 cells; host or cells: HepG2 human hepatocarcinoma cells (microsomal fraction)
T1 sequence (O00767 1-359): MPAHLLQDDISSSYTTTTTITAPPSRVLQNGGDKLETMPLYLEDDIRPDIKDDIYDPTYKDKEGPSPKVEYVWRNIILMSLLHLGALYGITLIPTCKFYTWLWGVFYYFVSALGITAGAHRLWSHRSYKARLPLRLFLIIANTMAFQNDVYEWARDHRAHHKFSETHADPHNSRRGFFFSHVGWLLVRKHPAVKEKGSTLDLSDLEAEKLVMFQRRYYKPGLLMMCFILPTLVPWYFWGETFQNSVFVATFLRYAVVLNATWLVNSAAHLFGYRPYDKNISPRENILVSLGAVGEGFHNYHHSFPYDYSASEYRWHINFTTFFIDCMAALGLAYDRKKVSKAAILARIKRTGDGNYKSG
Nature of the data set: Human enzymatic activity of SCD-1 from microsomes of HepG2 cells (conversion of [14C] stearic acid to oleic acid, HPLC). The class given is biochemical. To be noted: microsomal fraction of HepG2 cells, 62 μM stearic acid, 20 minutes at 37° C., vs vehicle 0.1% DMSO; read-out: HSCD-1 (HEPG2) IC50. As to the method: In vitro: Human enzymatic activity of SCD-1 from microsomes of HepG2 cells after treatment with the inhibitor compounds (% inhibition).
HepG2 cells of human hepatocarcinoma (ATCC, HB-8065) are cultured at confluence then trypsinated. The cell residue is solubilized in 10 mM Tris buffer (pH 7.4) sucrose (250 mM) DTT (1 mM) then the cells are lysed by sonication. The microsomes are obtained after centrifuging at 10,000 g for 20 minutes at 4° C. followed by centifrugation of the supernatant at 100,000 g for 60 minutes at 4° C. The residue is solubilized in 10 mM Tris buffer (pH 7.4) sucrose (250 mM) at 4° C. and the microsomal proteins are assayed and stored at −196° C. (liquid nitrogen).
The enzymatic reaction measures the conversion of stearic acid (C18:0 fatty acid) into oleic acid (C18:1 fatty acid) by SCD-1. The enzymatic reaction is initiated by the addition of 125 μg of microsomal fraction of HepG2 cells to tubes (total reaction volume of 500 μl) containing 62 μM stearic acid (45 μM stearic acid and 17 μM [^14C] stearic acid) in 100 mM phosphate buffer (pH 7.16) with 7.2 mM ATP, 0.54 mM CoA, 6 mM MgCl2, 0.8 mM NADH and the inhibitor compound or vehicle (0.1% DMSO). The tubes are incubated for 20 minutes at 37° C. then the enzymatic reaction is halted by the addition of KOH (12%) and saponification for 30 minutes at 80° C. After acidification (3N HCl), the fatty acids are extracted twice with ethyl ether, evaporated under nitrogen before being solubilized in methanol/dichloromethane (3:1). The reaction product (C18:1) is separated from the reaction substrate (C18:0) by HPLC (Perkin Elmer, C18 reverse phase column) coupled with an in-line radioactivity detector (FlowOne). Enzymatic activity is measured in picomoles of stearic acid converted to oleic acid per minute and per mg of protein. For each inhibitor compound, an IC50 value is determined, compared with the reference enzymatic activity (vehicle 0.1% DMSO). Sterculic acid is the reference inhibitor compound (Gomez F. E., Bauman D. E., Ntambi J. M., Fox B. G. Effects of sterculic acid on stearoyl-CoA desaturase in differentiating […] adipocytes. Biochem Biophys Res Commun. 300 316-326 (2003).

Broadly, the melting point is the temperature of the solid-liquid transition. As usually defined, the IC50 is the concentration that gives 50% inhibition. `Cn1nccc(NCC(=O)N2CCC(Oc3ccccc3C(F)(F)F)CC2)c1=O` [Example 1, 2-Methyl-4-{2-oxo-2-[4-(2-trifluoromethyl-phenoxy)-piperidin-1-yl]-ethylamino}-2H-pyridazin-3-one] returned a melting point of 50 °C. On SCD-1, the IC50 lay in the range of 0.1 to 1 µM.
Taken in the same sequence, the figures for `Cn1nccc(NCC(=O)N2CCC(Oc3cc(F)ccc3C(F)(F)F)CC2)c1=O` [Example 2, 4-{2-[4-(5-Fluoro-2-trifluoromethyl-phenoxy)-piperidin-1-yl]-2-oxo-ethylamino}-2-methyl-2H-pyridazin-3-one] were 140 °C and 0.03 to 0.1 µM.
Consider `Cn1nccc(NCC(=O)N2CCC(Oc3cc(F)cc(C(F)(F)F)c3)CC2)c1=O` [Example 3, 4-{2-[4-(3-Fluoro-5-trifluoromethyl-phenoxy)-piperidin-1-yl]-2-oxo-ethylamino}-2-methyl-2H-pyridazin-3-one], for which the melting point came out at 175 °C. Besides, the IC50 on SCD-1 was 0.1 to 1 µM.
The corresponding values for `Cn1nccc(NCC(=O)N2CCC(Oc3cc(C(F)(F)F)ccc3Cl)CC2)c1=O` [Example 4, 4-{2-[4-(2-Chloro-5-trifluoromethyl-phenoxy)-piperidin-1-yl]-2-oxo-ethylamino}-2-methyl-2H-pyridazin-3-one] are 158 °C and 0.01 to 0.1 µM.
The corresponding values for `Cn1nccc(NCC(=O)N2CCC(Oc3cc(F)c(F)cc3Br)CC2)c1=O` [Example 5, 4-{2-[4-(2-Bromo-4,5-difluoro-phenoxy)-piperidin-1-yl]-2-oxo-ethylamino}-2-methyl-2H-pyridazin-3-one] are 137 °C and 0.03 to 0.1 µM.
Taken in the same sequence, the figures for `Cn1nccc(NCC(=O)N2CCC(Oc3cc(Br)ccc3Cl)CC2)c1=O` [Example 6, 4-{2-[4-(5-Bromo-2-chloro-phenoxy)-piperidin-1-yl]-2-oxo-ethylamino}-2-methyl-2H-pyridazin-3-one] were 160 °C and 0.003 µM.
On to `Cn1nccc(NCC(=O)N2CCC(Oc3ccccc3Cl)CC2)c1=O` [Example 7, 4-{2-[4-(2-Chloro-phenoxy)-piperidin-1-yl]-2-oxo-ethylamino}-2-methyl-2H-pyridazin-3-one], for which the melting point was 142 °C. The half-maximal inhibitory concentration (IC50) at SCD-1 was 0.1 to 1 µM.
`Cn1nccc(NCC(=O)N2CCC(Oc3cc(F)ccc3Cl)CC2)c1=O` [Example 8, 4-{2-[4-(2-Chloro-5-fluoro-phenoxy)-piperidin-1-yl]-2-oxo-ethylamino}-2-methyl-2H-pyridazin-3-one] had a melting point of 159 °C. Also, the IC50 at SCD-1 came to 0.1 µM.
The corresponding values for `Cn1nccc(NCC(=O)N2CCC(Oc3cc([N+](=O)[O-])ccc3Cl)CC2)c1=O` [Example 9, 4-{2-[4-(2-Chloro-5-nitro-phenoxy)-piperidin-1-yl]-2-oxo-ethylamino}-2-methyl-2H-pyridazin-3-one] are 162 °C and 0.1 to 1 µM.
In the case of `Cn1nccc(NCC(=O)N2CCC(Oc3ccc(Cl)c(Cl)c3)CC2)c1=O` [Example 10, 4-{2-[4-(3,4-Dichloro-phenoxy)-piperidin-1-yl]-2-oxo-ethylamino}-2-methyl-2H-pyridazin-3-one], the melting point is 169 °C. For the same compound, the IC50 at SCD-1 lay in the range of 0.3 to 1 µM.
The compound `Cn1nccc(NCC(=O)N2CCC(Oc3ccc(Cl)cc3Cl)CC2)c1=O` [Example 11, 4-{2-[4-(2,4-Dichloro-phenoxy)-piperidin-1-yl]-2-oxo-ethylamino}-2-methyl-2H-pyridazin-3-one] gave a melting point of 152 °C. Further, the IC50 at SCD-1 was in the range of 0.1 to 0.3 µM.
For the compound `Cn1nccc(NCC(=O)N2CCC(Oc3cc(Cl)ccc3Cl)CC2)c1=O` [Example 12, 4-{2-[4-(2,5-Dichloro-phenoxy)-piperidin-1-yl]-2-oxo-ethylamino}-2-methyl-2H-pyridazin-3-one], the melting point turned out to be 162 °C. At SCD-1, the IC50 lay in the range of 0.03 to 0.1 µM.
`Cc1ccc(F)cc1OC1CCN(C(=O)CNc2ccnn(C)c2=O)CC1` [Example 14, 4-{2-[4-(5-Fluoro-2-methyl-phenoxy)-piperidin-1-yl]-2-oxo-ethylamino}-2-methyl-2H-pyridazin-3-one] yielded a melting point of 176 °C. Moreover, on SCD-1, the IC50 was 0.1 to 1 µM.
On to `CN(CC(=O)N1CCC(Oc2ccccc2Cl)CC1)c1ccnn(C)c1=O` [Example 18, 4-({2-[4-(2-Chloro-phenoxy)-piperidin-1-yl]-2-oxo-ethyl}-methyl-amino)-2-methyl-2H-pyridazin-3-one], for which the IC50 at SCD-1 was in the range of 3 to 10 µM.
For the compound `Cn1ncc(NCC(=O)N2CCC(Oc3cc(F)ccc3Cl)CC2)cc1=O` [Example 20, 5-{2-[4-(2-Chloro-5-fluoro-phenoxy)-piperidin-1-yl]-2-oxo-ethylamino}-2-methyl-2H-pyridazin-3-one], the IC50 at SCD-1 is about 10 µM.
On the same count and under the same terms, next, `Cn1nccc(CCC(=O)N2CCC(Oc3cc(C(F)(F)F)ccc3Cl)CC2)c1=O` [Example 37, 4-{3-[4-(2-Chloro-5-trifluoromethyl-phenoxy)-piperidin-1-yl]-3-oxo-propyl}-2-methyl-2H-pyridazin-3-one]: 0.3 µM.
In the case of `O=C(CNc1ccn[nH]c1=O)N1CCC(Oc2cc(Cl)ccc2Cl)CC1` [Example 41, 4-{2-[4-(2,5-dichloro-phenoxy)-piperidin-1-yl]-2-oxo-ethylamino}-2H-pyridazin-3-one], the IC50 at SCD-1 was in the range of 0.01 to 0.1 µM.
For `O=C(CNc1ccn[nH]c1=O)N1CCC(Oc2cc(Br)ccc2Cl)CC1` [Example 42, 4-{2-[4-(5-Bromo-2-Chloro-phenoxy)-piperidin-1-yl]-2-oxo-ethylamino}-2H-pyridazin-3-one], the IC50 on SCD-1 was 0.01 to 0.1 µM.
For `O=C(CNc1ccn[nH]c1=O)N1CCC(Oc2cc(F)c(F)cc2Br)CC1` [Example 43, 4-{2-[4-(2-Bromo-4,5-difluoro-phenoxy)-piperidin-1-yl]-2-oxo-ethylamino}-2H-pyridazin-3-one], at SCD-1, the IC50 is 0.01 to 0.1 µM.
Still for that read-out and setting: next, `O=C(CNc1ccn[nH]c1=O)N1CCC(Oc2cccc(C(F)(F)F)c2)CC1` [Example 44, 4-{2-[4-(3-trifluoromethyl-phenoxy)-piperidin-1-yl]-2-oxo-ethylamino}-2H-pyridazin-3-one]: 0.1 to 1 µM.
On the same count and under the same terms, next, `O=C(CNc1ccnn(CCCC(F)(F)F)c1=O)N1CCC(Oc2cc(C(F)(F)F)ccc2Cl)CC1` [Example 45, 4-{2-[4-(2-Chloro-5-trifluoromethyl-phenoxy)-piperidin-1-yl]-2-oxo-ethylamino}-2-(4,4,4-trifluoro-butyl)-2H-pyridazin-3-one]: 0.1 to 1 µM; `CC#CCn1nccc(NCC(=O)N2CCC(Oc3cc(C(F)(F)F)ccc3Cl)CC2)c1=O` [Example 46, 2-But-2-ynyl-4-{2-[4-(2-chloro-5-trifluoromethyl-phenoxy)-piperidin-1-yl]-2-oxo-ethylamino}-2H-pyridazin-3-one]: 1 µM.
As to `CC(C)CCCn1nccc(NCC(=O)N2CCC(Oc3cc(C(F)(F)F)ccc3Cl)CC2)c1=O` [Example 47, 4-{2-[4-(2-Chloro-5-trifluoromethyl-phenoxy)-piperidin-1-yl]-2-oxo-ethylamino}-2-(4-methyl-pentyl)-2H-pyridazin-3-one], at SCD-1, the 50% inhibitory concentration (IC50) is 0.3 to 1 µM.
Regarding `O=C(CNc1ccnn(Cc2ccccc2)c1=O)N1CCC(Oc2ccccc2C(F)(F)F)CC1` [Example 48, 2-Benzyl-4-{2-oxo-2-[4-(2-trifluoromethyl-phenoxy)-piperidin-1-yl]-ethylamino}-2H-pyridazin-3-one], the IC50 at SCD-1 fell in the range of 1 to 10 µM.
Compound `CCCCn1nccc(NCC(=O)N2CCC(Oc3ccccc3Cl)CC2)c1=O` [Example 50, 2-Butyl-4-{2-[4-(2-chloro-phenoxy)-piperidin-1-yl]-2-oxo-ethylamino}-2H-pyridazin-3-one] returned a melting point of 82 °C.
For the compound `CCCCCCCCC1=C(CCCCCCCC(=O)O)C1` [Sterculic acid, reference compound], the IC50 on SCD-1 worked out at 0.3 µM.
